The record followed here is US20220279787A1, “a-Substituted Phenyl Structure-Containing Compound, Preparation Method Thereof, and Disinfectant” (Henan Ruibo Pharmaceutical Technology Co. Ltd., priority 2019, published 2022).

What all share (type): cell-based
Assay [1] relates to Bacillus subtilis var. niger spores ATCC 9372. Description: Suspension quantitative experiment, Bacillus subtilis var. niger spores. The conditions noted are these: for log reduction at 15000 µg/mL: Bacillus subtilis, ATCC9372, 0.5 h, read-out: Activity (killing logarithmic value); for Killing logarithmic value: suspension method. The method, then:
(4) Operation Method of Suspension Quantitative Experiment:
(§1) a. The Bacillus subtilis var. niger spores ATCC 9372 freeze-dried strain tube was provided, opened up under an aseptic condition, and an appropriate amount of nutrient broth was added thereto with a capillary pipette. The strain was melted and dispersed by gently blowing and sucking several times. A test tube containing 5.0 mL-10.0 mL of nutrient broth medium was provided, and a small amount of bacterial suspension was dropped thereto, and incubated at 37° C. for 18 h-24 h. The bacterial suspension of the first generation culture was taken by using an inoculation loop.
b. The monoclonal strains of the first generation culture were picked out and placed in 3 mL of NMB. The strains were shaken in a constant temperature culture shaker for 3 h with a rotation speed of 220 rpm, obtaining a bacterial suspension with a concentration of (1-5)×10^8 CFU/mL.
(§2) c. 0.5 mL of bacterial suspension was added to a sterile test tube, and 0.5 mL of an organic interfering substance (0.03 mol/L PBS buffer) was then added thereto. They were mixed to be uniform, and placed in a water bath at 20° C.±1° C. for 5 min. 4.0 mL of the sample to be tested prepared in step (1) was drawn with a sterile pipette and injected into the mixed solution, mixed quickly, and the time was recorded immediately.
d. After the experimental bacteria interacted with the sample to be tested for the predetermined time. 0.5 mL of the mixture of the experimental bacteria and a disinfectant was drawn respectively and added to 4.5 mL of a neutralizer, and mixed to be uniform.
(§3) e. After 10 min of neutralization, 1.0 mL of the sample solution was drawn, and the number of viable bacteria was determined by viable count method. After the viable count method, sample solution of each pipette was inoculated onto 2 plates. When the number of colonies growing on the plate was large, 10-fold dilution was performed, and then the viable bacteria was cultured and counted.
h. At the same time, PBS buffer was used to replace the sample to be tested, and a parallel test was performed as a positive control.
f. All test samples were placed in a 37° C. incubator overnight, and the results were observed.
g. The experiment was repeated for 3 times, the concentration of viable bacteria (CFU/mL) of each group was calculated, and converted to logarithmic value (N), and then the killing logarithmic value was calculated according to the following equation:
(§4) Killing logarithmic value (KL)=the logarithmic value of the average viable bacteria concentration of the control group (No)−the logarithmic value of the viable bacteria concentration of the test group (Nx).
(§5) When calculating the killing logarithmic value, two digits after the decimal point was kept, and digital round-off was allowed.

Assay [2] concerns Escherichia coli ATCC 25922. Briefly: Neutralizer identification experiment, Escherichia coli. As for the experimental part: (§6) (4) Experimental Method for Selecting a Neutralizer:
(§7) Escherichia coli ATCC 25922 and Staphylococcus aureus ATCC 29213 were used as the experimental strains, and the concentration of the drug to be tested was set to be 2.5 g/L. The experiment was carried out according to the suspension quantitative sterilization procedure, with three repetitions, and six parallel groups:
(§8) Group I: 100 μL of a bacterial suspension (Escherichia coli ATCC 25922 with a concentration of 1×10^8 CFU/mL and Staphylococcus aureus ATCC 29213 with a concentration of 1×10^8 CFU/mL) interacted with 400 μL of the drug to be tested for 5 min; 50 μL of the mixed solution and 450 μL of PBS buffer were mixed to be uniform and diluted; the viable bacteria therein was counted;
(§9) Group II: 100 μL a bacterial suspension (Escherichia coli ATCC 25922 with a concentration of 1×10^8 CFU/mL and Staphylococcus aureus ATCC 29213 with a concentration of 1×10^8 CFU/mL) interacted with 400 μL of the drug to be tested for 5 min; 50 μL of the mixed solution and 450 μL of a neutralizer were mixed to be uniform and reacted for 10 min, and diluted; the viable bacteria therein was counted;
(§10) Group III: 10 μL of a bacterial suspension, 40 μL of sterile water, and 450 μL of a neutralizer were reacted for 10 min; the reaction solution was diluted, and the viable bacteria therein was counted;
(§11) Group V: 100 μL of bacterial suspension and 400 μL of a neutralizer were reacted for 5 min; 50 μL of the mixture and 450 μL of PBS buffer were mixed to be uniform, and then diluted; the viable bacteria therein was counted;
(§12) Group VI: a mixture of culture medium and PBS buffer was used as negative control.
(§13) Determination of the Results:
(§14) Group I had no bacteria growth or a small amount of bacteria growth;
(§15) Group II had bacteria growth, and the number of bacteria was not less than 100 CFU/mL;
(§16) the error rate of the number of bacteria between the Group III, Group IV, and Group V was less than or equal to 15%;
(§17) Group VI had no bacteria growth.

Assay [3] concerns Staphylococcus aureus ATCC 29213. Description: Neutralizer identification experiment, Staphylococcus aureus. The method, then: as §6, §7, §8, §9, §10, §11, §12, §13, §14, §15, §16, §17
In assay [4] the test system is Bacillus subtilis var. niger spores ATCC 9372. Briefly: Carrier immersion quantitative sterilization test. To be noted: carrier method. The method, then: (5) Operation Method of the Carrier Immersion Quantitative Sterilization Test:
a. A sterile small plate was provided, and marked with the concentration of the sample to be tested injected. The sample to be tested of the corresponding concentration was drawn and injected into the plate in an amount of 5.0 mL per piece.
b. 3 pieces of Bacillus subtilis var. niger spores were placed on the plate by using a sterile tweezer, and soaked in the sample to be tested.
c. After the bacteria and drugs interacted for each predetermined time, the bacteria pieces were taken out by using a sterile tweezer and transferred into a test tube containing 5.0 mL of a neutralizer. The test tube was vibrated 80 times in the palm of the hand to wash the bacteria on the bacteria piece into the neutralization solution, left to stand for another 10 min to fully neutralize. Finally after further mixing, 1.0 mL of the mixture was drawn and directly inoculated onto the plate, 2 plates for each pipette, and the number of viable bacteria was determined.
d. Another plate was provided, and 10.0 mL of PBS buffer was injected instead of the sample to be tested. 2 pieces of bacteria were added thereto as the positive control group, and the subsequent test steps and viable bacteria culture and counting were the same as the above test groups.
e. All test samples were cultured overnight in a 37° C. incubator, and the results were observed.
f. The experiment was repeated for 3 times (including the control group), and the number of viable bacteria (CFU/piece) in each group was calculated and converted to a logarithmic value (N).

In assay [5] the test system is Escherichia coli ATCC 25922. Description: Suspension quantitative sterilization experiment, Escherichia coli ATCC 25922. To be noted: suspension method, 6.25 g/L, action time 30 min. As for the experimental part: (§18) (5) Operation Method of Suspension Quantitative Experiment:
as §1, with “The” for “The Bacillus subtilis var. niger spores ATCC 9372”, “loop, and streaked and inoculated onto a nutrient agar medium plate, and incubated at 37° C. for 18 h-24 h. The typical colonies from the second generation culture was picked out, inoculated onto a nutrient agar slant, and incubated at 37° C. for 18 h-24 h, obtaining the third generation culture.” for “loop.”
(§19) b. The monoclonal strains of the third generation culture of Escherichia coli ATCC 25922, Staphylococcus aureus ATCC 29213, and Pseudomonas aeruginosa ATCC 27853 were picked out respectively and placed in 3 mL of NMB. The strains were shaken in a constant temperature culture shaker for 3 h with a rotation speed of 220 rpm, obtaining a bacterial suspension with a concentration of (1-5)×10^8 CFU/mL.
as §2
(§20) d. After the experimental bacteria interacted with the sample to be tested for the predetermined time of 1 min, 5 min, 15 min and 30 min. 0.5 mL of the mixture of the experimental bacteria and the sample to be tested was drawn respectively and added to 4.5 mL of a neutralizer, and mixed to be uniform.
as §3
(§21) f. At the same time, PBS buffer was used to replace the sample to be tested, and a parallel test was performed as a positive control.
(§22) g. All test samples were placed in a 37° C. incubator overnight, and the results were observed.
(§23) h. The experiment was repeated for 3 times, the concentration of viable bacteria (CFU/mL) of each group was calculated, and converted to logarithmic value (N), and then the killing logarithmic value was calculated according to the following equation:
as §4, §5

In assay [6] the test system is Staphylococcus aureus ATCC 29213. Description: Suspension quantitative sterilization experiment, Staphylococcus aureus ATCC 29213. The conditions noted are these: suspension method, 6.25 g/L, action time 30 min. As for the experimental part: as §18
as §1, with “The” for “The Bacillus subtilis var. niger spores ATCC 9372”, “loop, and streaked and inoculated onto a nutrient agar medium plate, and incubated at 37° C. for 18 h-24 h. The typical colonies from the second generation culture was picked out, inoculated onto a nutrient agar slant, and incubated at 37° C. for 18 h-24 h, obtaining the third generation culture.” for “loop.”
as §19, §2, §20, §3, §21, §22, §23, §4, §5

Assay [7] deals with Pseudomonas aeruginosa ATCC 27853. Description: Suspension quantitative sterilization experiment, Pseudomonas aeruginosa ATCC 27853. The conditions noted are these: suspension method, 6.25 g/L, action time 30 min. The method, then: as §18
as §1, with “The” for “The Bacillus subtilis var. niger spores ATCC 9372”, “loop, and streaked and inoculated onto a nutrient agar medium plate, and incubated at 37° C. for 18 h-24 h. The typical colonies from the second generation culture was picked out, inoculated onto a nutrient agar slant, and incubated at 37° C. for 18 h-24 h, obtaining the third generation culture.” for “loop.”
as §19, §2, §20, §3, §21, §22, §23, §4, §5

The mark [8] stands for this setting: 2.5 g/L drug reacted with neutralizer 10 min, then bacterial suspension added.
The mark [9] stands for this setting: 2.5 g/L drug, 5 min, then mixed with PBS buffer.
The mark [10] stands for this setting: 2.5 g/L drug, 5 min, then neutralizer 10 min.

In the case of `CNC(=O)C(c1ccc(O)c(O)c1)c1ccco1` (stereo not shown) [Example 5, 2-(3,4-dihydroxyphenyl)-2-(2-furyl)-N-methylacetamide], the log reduction at 15000 µg/mL in assay [1] turned out to be 5.6. For the same compound, the “Viable bacteria count, Group IV” value was 6 × 10^6 CFU/mL in assay [2] (setting [8]) and 7 × 10^5 CFU/mL in assay [3] (setting [8]). For the same compound, the “Viable bacteria count, Group I” value was 2 × 10^4 CFU/mL in assay [2] (setting [9]) and 3 × 10^4 CFU/mL in assay [3] (setting [9]). Also, the “Viable bacteria count, Group II” value in assay [2] (setting [10]) is given as 400 CFU/mL; in assay [3] (setting [10]), 5 × 10^4 CFU/mL.
With `O=Cc1ccccc1C=O` [o-Phthalaldehyde solution, o-Phthalaldehyde], the Killing logarithmic value in assay [1] (5 g/L, 10 min) was found to be 5.23; in assay [1] (5 g/L, 20 min) it was 5.31; in assay [1] (5 g/L, 30 min) it was 5.39; in assay [1] (10 g/L, 10 min) it was 5.41; in assay [1] (10 g/L, 20 min), 5.49; in assay [1] (10 g/L, 30 min) it was 5.57. For the same compound, the Killing logarithmic value is 5.53 in assay [1] (15 g/L, 10 min); 5.68 in assay [1] (15 g/L, 20 min); 5.71 in assay [1] (15 g/L, 30 min); 1.95 in assay [4] (5 g/L, 1 h); 3.23 in assay [4] (5 g/L, 2 h); 5.21 in assay [4] (5 g/L, 3 h). Further, the Killing logarithmic value in assay [4] (5 g/L, 4 h) worked out at 5.53; in assay [4] (10 g/L, 1 h), 2.19; in assay [4] (10 g/L, 2 h), 5.12; in assay [4] (10 g/L, 3 h) it was 5.26; in assay [4] (10 g/L, 4 h), 5.53; in assay [4] (15 g/L, 1 h), 3.23. For the same compound, the Killing logarithmic value is listed as 5.21 in assay [4] (15 g/L, 2 h); 5.36 in assay [4] (15 g/L, 3 h); 5.53 in assay [4] (15 g/L, 4 h).
As for `O=C(O)C(c1ccccc1)c1ccccc1` [Example 7, 2,2-diphenylacetic acid], the “Activity (killing logarithmic value)” value in assay [5] is 1.02; in assay [6], 1.45; in assay [7] it was 1.29. Besides, in assay [1], the log reduction at 15000 µg/mL was found to be 1.97.
Consider `Cc1ccc(C(C(=O)O)c2ccc(O)cc2)cc1` (stereo not shown) [Example 4, 2-(4-hydroxyphenyl)-2-p-tolueneacetic acid], for which the figures for the “Activity (killing logarithmic value)” value in assay [5], in assay [6] and in assay [7] were 0.78, 0.75 and 0.78, respectively. The log reduction at 15000 µg/mL in assay [1] came to 1.54.
With `CNC(=O)C(c1ccncc1)c1ccc(O)c(O)c1` (stereo not shown) [Example 6, 2-(3,4-dihydroxyphenyl)-N-methyl-2-(4-pyridyl)acetamide], the “Activity (killing logarithmic value)” value in assay [5] came to 1.64; in assay [6], 1.78; in assay [7], 0.31. Besides, in assay [1], the log reduction at 15000 µg/mL stood at 0.76.
